Laboratory results from PubChem BioAssay AID1963958 (Molecular Pharmacology Branch, DTP, NCI, 2024).
Blank lines part the entries; values can stand above or below the molecule they belong to.

Tested on: MDA-MB-231 multicell spheroids, viability
Experiment: Anticancer human tumor MDA-MB-231 cell line growth inhibition [PI3K];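 also: spheroids exposed to agents for seven days before reading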;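 as to viability, T/C: percent of vehicle control luminescence with DMSO treated spheroids as 100%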
Details: for viability, T/C: stronger effect = lower value
Summary of the method: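 Multi-cell spheroids combine tumor cells with HUVEC and human MSCs, treated with targeted agents alone or with inavolisib, alpelisib, duvelisib or copanlisib. Concentrations fall in half-log steps from at or near clinical Cmax, or from 10 microM where Cmax is unknown; viability read-out.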

[1] = curve of first compound, second compound 0.00316 µM
[2] = curve of first compound, second compound 0.01 µM
[3] = curve of first compound, second compound 0.0316 µM
[4] = curve of first compound, second compound 0.1 µM
[5] = curve of first compound, second compound 0.316 µM
[6] = curve of first compound, second compound 1 µM
[7] = second compound 0.00316 µM, first compound 0.0316 µM
[8] = second compound 0.00316 µM, first compound 0.1 µM
[9] = second compound 0.01 µM, first compound 0.0316 µM
[10] = second compound 0.01 µM, first compound 0.1 µM
[11] = second compound 0.0316 µM, first compound 0.0316 µM
[12] = second compound 0.0316 µM, first compound 0.1 µM
[13] = second compound 0.1 µM, first compound 0.0316 µM
[14] = second compound 0.1 µM, first compound 0.1 µM
[15] = second compound 0.316 µM, first compound 0.0316 µM
[16] = second compound 0.316 µM, first compound 0.1 µM
[17] = second compound 1 µM, first compound 0.0316 µM
[18] = second compound 1 µM, first compound 0.1 µM

- IC50 [1]: 674 nM
- IC50 [2]: 1100 nM
- IC50 [3]: 34.1 nM
- IC50 [4]: < 9.49 nM
- IC50 [5]: < 9.49 nM
- IC50 [6]: < 9.49 nM
Compound: Cn1cnc2c(F)c(Nc3ccc(Br)cc3Cl)c(C(=O)NOCCO)cc21 + CC(Nc1ccc2c(c1)OCCn1cc(N3C(=O)OCC3C(F)F)nc1-2)C(N)=O
- viability, T/C (second compound 0.00316 µM, first compound 0.00949 µM): 67.7%
- viability, T/C (second compound 0.00316 µM, first compound 0.03 µM): 60%
- viability, T/C (second compound 0.00316 µM, first compound 0.0949 µM): 58.2%
- viability, T/C (second compound 0.00316 µM, first compound 0.3 µM): 56.2%
- viability, T/C (second compound 0.00316 µM, first compound 0.949 µM): 49.4%
- viability, T/C (second compound 0.00316 µM, first compound 3 µM): 32%
- viability, T/C (second compound 0.01 µM, first compound 0.00949 µM): 56.8%
- viability, T/C (second compound 0.01 µM, first compound 0.03 µM): 56.2%
- viability, T/C (second compound 0.01 µM, first compound 0.0949 µM): 54.3%
- viability, T/C (second compound 0.01 µM, first compound 0.3 µM): 53.9%
- viability, T/C (second compound 0.01 µM, first compound 0.949 µM): 53%
- viability, T/C (second compound 0.01 µM, first compound 3 µM): 30.8%
- viability, T/C (second compound 0.0316 µM, first compound 0.00949 µM): 56.1%
- viability, T/C (second compound 0.0316 µM, first compound 0.03 µM): 48.1%
- viability, T/C (second compound 0.0316 µM, first compound 0.0949 µM): 46.1%
- viability, T/C (second compound 0.0316 µM, first compound 0.3 µM): 44.8%
- viability, T/C (second compound 0.0316 µM, first compound 0.949 µM): 43.2%
- viability, T/C (second compound 0.0316 µM, first compound 3 µM): 23%
- viability, T/C (second compound 0.1 µM, first compound 0.00949 µM): 50.9%
- viability, T/C (second compound 0.1 µM, first compound 0.03 µM): 41.7%
- viability, T/C (second compound 0.1 µM, first compound 0.0949 µM): 44%
- viability, T/C (second compound 0.1 µM, first compound 0.3 µM): 42.1%
- viability, T/C (second compound 0.1 µM, first compound 0.949 µM): 36.3%
- viability, T/C (second compound 0.1 µM, first compound 3 µM): 16.7%
- viability, T/C (second compound 0.316 µM, first compound 0.00949 µM): 42.5%
- viability, T/C (second compound 0.316 µM, first compound 0.03 µM): 42%
- viability, T/C (second compound 0.316 µM, first compound 0.0949 µM): 40.5%
- viability, T/C (second compound 0.316 µM, first compound 0.3 µM): 39.8%
- viability, T/C (second compound 0.316 µM, first compound 0.949 µM): 33.4%
- viability, T/C (second compound 0.316 µM, first compound 3 µM): 15.4%
- viability, T/C (second compound 1 µM, first compound 0.00949 µM): 41.1%
- viability, T/C (second compound 1 µM, first compound 0.03 µM): 35.1%
- viability, T/C (second compound 1 µM, first compound 0.0949 µM): 38.4%
- viability, T/C (second compound 1 µM, first compound 0.3 µM): 37.7%
- viability, T/C (second compound 1 µM, first compound 0.949 µM): 33.9%
- viability, T/C (second compound 1 µM, first compound 3 µM): 15.3%

- IC50 [1]: > 10000 nM
- IC50 [2]: > 10000 nM
- IC50 [3]: > 10000 nM
- IC50 [4]: < 31.6 nM
- IC50 [5]: < 31.6 nM
- IC50 [6]: < 31.6 nM
Compound: CC1(C)CCC(CN2CCN(c3ccc(C(=O)NS(=O)(=O)c4ccc(NCC5CCOCC5)c([N+](=O)[O-])c4)c(Oc4cnc5[nH]ccc5c4)c3)CC2)=C(c2ccc(Cl)cc2)C1 + COc1c(OCCCN2CCOCC2)ccc2c3n(c(=NC(=O)c4cnc(N)nc4)nc12)CCN3
- viability, T/C [7]: 100%
- viability, T/C [8]: 96.4%
- viability, T/C (second compound 0.00316 µM, first compound 0.316 µM): 96.8%
- viability, T/C (second compound 0.00316 µM, first compound 1 µM): 104%
- viability, T/C (second compound 0.00316 µM, first compound 3.16 µM): 102%
- viability, T/C (second compound 0.00316 µM, first compound 10 µM): 104%
- viability, T/C [9]: 82.1%
- viability, T/C [10]: 80.1%
- viability, T/C (second compound 0.01 µM, first compound 0.316 µM): 85%
- viability, T/C (second compound 0.01 µM, first compound 1 µM): 91.1%
- viability, T/C (second compound 0.01 µM, first compound 3.16 µM): 85.2%
- viability, T/C (second compound 0.01 µM, first compound 10 µM): 83.9%
- viability, T/C [11]: 65.9%
- viability, T/C [12]: 66.4%
- viability, T/C (second compound 0.0316 µM, first compound 0.316 µM): 65.2%
- viability, T/C (second compound 0.0316 µM, first compound 1 µM): 65.7%
- viability, T/C (second compound 0.0316 µM, first compound 3.16 µM): 67.4%
- viability, T/C (second compound 0.0316 µM, first compound 10 µM): 66.5%
- viability, T/C [13]: 46.2%
- viability, T/C [14]: 45.6%
- viability, T/C (second compound 0.1 µM, first compound 0.316 µM): 48.1%
- viability, T/C (second compound 0.1 µM, first compound 1 µM): 47.7%
- viability, T/C (second compound 0.1 µM, first compound 3.16 µM): 48.9%
- viability, T/C (second compound 0.1 µM, first compound 10 µM): 44.9%
- viability, T/C [15]: 35.6%
- viability, T/C [16]: 34.8%
- viability, T/C (second compound 0.316 µM, first compound 0.316 µM): 36.1%
- viability, T/C (second compound 0.316 µM, first compound 1 µM): 35.3%
- viability, T/C (second compound 0.316 µM, first compound 3.16 µM): 35.8%
- viability, T/C (second compound 0.316 µM, first compound 10 µM): 33.6%
- viability, T/C [17]: 25.7%
- viability, T/C [18]: 26.2%
- viability, T/C (second compound 1 µM, first compound 0.316 µM): 24.5%
- viability, T/C (second compound 1 µM, first compound 1 µM): 23.9%
- viability, T/C (second compound 1 µM, first compound 3.16 µM): 25.1%
- viability, T/C (second compound 1 µM, first compound 10 µM): 22.2%

- IC50 [1]: 74.4 nM
- IC50 [2]: 60.6 nM
- IC50 [3]: 34.4 nM
- IC50 [4]: 15.4 nM
- IC50 [5]: 10.1 nM
- IC50 [6]: 4.52 nM
Compound: CC(=O)c1c(C)c2cnc(Nc3ccc(N4CCNCC4)cn3)nc2n(C2CCCC2)c1=O + CC(Nc1ccc2c(c1)OCCn1cc(N3C(=O)OCC3C(F)F)nc1-2)C(N)=O
- viability, T/C (second compound 0.00316 µM, first compound 0.000316 µM): 108%
- viability, T/C (second compound 0.00316 µM, first compound 0.001 µM): 91.5%
- viability, T/C (second compound 0.00316 µM, first compound 0.00316 µM): 98.1%
- viability, T/C (second compound 0.00316 µM, first compound 0.01 µM): 90.2%
- viability, T/C [7]: 67.4%
- viability, T/C [8]: 43.5%
- viability, T/C (second compound 0.01 µM, first compound 0.000316 µM): 94.1%
- viability, T/C (second compound 0.01 µM, first compound 0.001 µM): 92.6%
- viability, T/C (second compound 0.01 µM, first compound 0.00316 µM): 95.7%
- viability, T/C (second compound 0.01 µM, first compound 0.01 µM): 72.1%
- viability, T/C [9]: 67%
- viability, T/C [10]: 38.7%
- viability, T/C (second compound 0.0316 µM, first compound 0.000316 µM): 80.1%
- viability, T/C (second compound 0.0316 µM, first compound 0.001 µM): 75.7%
- viability, T/C (second compound 0.0316 µM, first compound 0.00316 µM): 79.9%
- viability, T/C (second compound 0.0316 µM, first compound 0.01 µM): 69%
- viability, T/C [11]: 51.8%
- viability, T/C [12]: 31.6%
- viability, T/C (second compound 0.1 µM, first compound 0.000316 µM): 71.3%
- viability, T/C (second compound 0.1 µM, first compound 0.001 µM): 65.7%
- viability, T/C (second compound 0.1 µM, first compound 0.00316 µM): 65.1%
- viability, T/C (second compound 0.1 µM, first compound 0.01 µM): 55.2%
- viability, T/C [13]: 41.3%
- viability, T/C [14]: 27.9%
- viability, T/C (second compound 0.316 µM, first compound 0.000316 µM): 65.8%
- viability, T/C (second compound 0.316 µM, first compound 0.001 µM): 64%
- viability, T/C (second compound 0.316 µM, first compound 0.00316 µM): 61.3%
- viability, T/C (second compound 0.316 µM, first compound 0.01 µM): 48.2%
- viability, T/C [15]: 37.9%
- viability, T/C [16]: 24.3%
- viability, T/C (second compound 1 µM, first compound 0.000316 µM): 60.9%
- viability, T/C (second compound 1 µM, first compound 0.001 µM): 55.1%
- viability, T/C (second compound 1 µM, first compound 0.00316 µM): 51.9%
- viability, T/C (second compound 1 µM, first compound 0.01 µM): 46.2%
- viability, T/C [17]: 35.9%
- viability, T/C [18]: 23.4%

- IC50 (curve of compound): > 10000 nM
Compound: CNC(=O)c1ccc(N2C(=S)N(c3ccc(C#N)c(C(F)(F)F)c3)C(=O)C2(C)C)cc1F
- viability, T/C (compound 0.0316 µM): 110% [middle of 4 runs]
- viability, T/C (compound 0.1 µM): 111% [middle of 4 runs]
- viability, T/C (compound 0.316 µM): 113% [middle of 4 runs]
- viability, T/C (compound 1 µM): 107% [middle of 4 runs]
- viability, T/C (compound 3.16 µM): 98.3% [middle of 4 runs]
- viability, T/C (compound 10 µM): 88.7% [middle of 4 runs]
